From patent publication US11673876B2, “Substituted aminobenzyl heteroaryl compounds as EGFR and/or PI3K inhibitors” (Mekanistic Therapeutics LLC, priority 2020, dated 2023)

How the values were obtained:
DNA-PK = DNA-PK (Homo sapiens (Human), UniProt P78527); experiment: Z'-LYTE / Adapta kinase assay, DNA-PK; type: biochemical; conditions: for inhibition at 0.1 µM: read-out: DNA-PK % Inh. @ 100 nM
Source text: (§1) The Z′-LYTE® biochemical assay employs a fluorescence-based, coupled-enzyme format and is based on the differential sensitivity of phosphorylated and non-phosphorylated peptides to proteolytic cleavage (FIG. 6). The peptide substrate is labeled with two fluorophores one at each end—that make up a FRET pair. In the primary reaction, the kinase transfers the gamma-phosphate of ATP to a single tyrosine, serine or threonine residue in a synthetic FRET-peptide. In the secondary reaction, a site-specific protease recognizes and cleaves non-phosphorylated FRET-peptides. Phosphorylation of FRET-peptides suppresses cleavage by the Development Reagent. Cleavage disrupts FRET between the donor (i.e., coumarin) and acceptor (i.e., fluorescein) fluorophores on the FRET-peptide, whereas uncleaved, phosphorylated FRET-peptides maintain FRET. A ratiometric method, which calculates the ratio (the Emission Ratio) of donor emission to acceptor emission after excitation of the donor fluorophore at 400 nm, is used to quantitate reaction progress.
(§2) A significant benefit of this ratiometric method for quantitating reaction progress is the elimination of well-to-well variations in FRET-peptide concentration and signal intensities. As a result, the assay yields very high Z′-factor values (>0.7) at a low percent phosphorylation.
(§3) Both cleaved and uncleaved FRET-peptides contribute to the fluorescence signals and therefore to the Emission Ratio. The extent of phosphorylation of the FRET-peptide can be calculated from the Emission Ratio.
(§4) Enzyme: The ADAPTA universal kinase assay is a homogenous, fluorescent based immunoassay for the detection of ADP. In contrast to ATP depletion assays, the ADAPTA assay is extremely sensitive to ADP formation such that a majority of the signal change occurs in the first 10-20% conversion of ATP to ADP. This makes the ADAPTA universal kinase assay ideally suited for use with low activity kinases.
(§5) The principle of the ADAPTA universal kinase assay is outlined below. The assay itself can be divided into two phases: a kinase reaction phase, and an ADP detection phase. In the kinase reaction phase, all components required for the kinase reaction are added to the well, and the reaction is allowed to incubate for 60 minutes.
(§6) Z′-LYTE® Assay Conditions:
(§7) Test Compounds: The Test Compounds are screened in 1% DMSO (final) in the well. For 10 point titrations, 3-fold serial dilutions are conducted from the starting concentration.
(§8) Peptide/Kinase Mixtures: All Peptide/Kinase Mixtures are diluted to a 2× working concentration in the appropriate Kinase Buffer.
(§9) ATP Solution: All ATP Solutions are diluted to a 4× working concentration in Kinase Buffer (50 mM HEPES pH 7.5, 0.01% BRIJ-35, 10 mM MgCl2, 1 mM EGTA). ATP Km apparent is previously determined using a Z′-LYTE® assay.
(§10) Development Reagent Solution: The Development Reagent is diluted in Development Buffer. […]
(§11) 2.5 μL—4× Test Compound or 100 nL 100× plus 2.4 μL kinase buffer. 2. 5 μL—2× Peptide/Kinase Mixture. 3. 2.5 μL—4× ATP Solution. 4. 30-second plate shake. 5. 60-minute Kinase Reaction incubation at room temperature. 6. 5 μL—Development Reagent Solution. 7. 30-second plate shake. 8. 60-minute Development Reaction incubation at room temperature. 9.

[1] = Metabolic stability in mouse liver microsomes; type: in vitro ADME
Method: (§12) Working solution: 5 μL of compound and control stock solution (10 mM in dimethyl sulfoxide (DMSO)) were diluted with 495 μL of acetonitrile (ACN) (intermediate solution concentration: 100 μM, 99% ACN)
(§13) NADPH Cofactor Preparation: NADPH powder: β-Nicotinamide adenine dinucleotide phosphate reduced form, tetrasodium salt; NADPH·4Na. The appropriate amount of NADPH powder was weighed and diluted into a 10 mM MgCl2 solution (working solution concentration: 10 unit/mL; final concentration in reaction system: 1 unit/mL)
(§14) Liver Microsomes Preparation: The appropriate concentrations of microsome working solutions were prepared in 100 mM potassium phosphate buffer. Cold (4° C.) acetonitrile (ACN) containing 200 ng/mL tolbutamide and 200 ng/mL labetalol as internal standards (1S) was used as the stop solution
(§15) Assay Procedure: Pre-warm empty ‘Incubation’ plates T60 and NCF60 for 10 minutes. Dilute liver microsomes to 0.56 mg/mL in 100 mM phosphate buffer. Transfer 445 μL microsome working solutions (0.56 mg/mL) into pre-warmed ‘Incubation’ plates T60 and NCF60, Then pre-incubate ‘Incubation’ plates T60 and NCF60 for 10 min at 37° C. with constant shaking. Transfer 54 μL liver microsomes to blank plate, then add 6 μL NAPDH cofactor to blank plate, and then add 180 μL quenching solution to blank plate. Add 5 μL compound working solution (100 μM) into ‘incubation’ plates (T60 and NCF60) containing microsomes and mix 3 times thoroughly.
(§16) For the NCF60 plate, add 50 μL of buffer and mix 3 times thoroughly. Start timing; plate will be incubated at 37° C. for 60 min while shaking. In ‘Quenching’ plate T0, add 180 μL quenching solution and 6 μL NAPDH cofactor. Ensure the plate is chilled to prevent evaporation. For the T60 plate, mix 3 times thoroughly, and immediately remove 54 μL mixture for the 0-min time point to ‘Quenching’ plate. Then add 44 μL NAPDH cofactor to incubation plate (T60). Start timing; plate will be incubated at 37° C. for 60 min while shaking. At 5, 10, 20, 30, and 60 min, add 180 μL quenching solution to ‘Quenching’ plates, mix once, and serially transfer 60 μL sample from T60 plate per time point to ‘Quenching’ plates. For NCF60: mix once, and transfer 60 μL sample from the NCF60 incubation to ‘Quenching’ plate containing quenching solution at the 60-min time point. All sampling plates are shaken for 10 min, then centrifuged at 4000 rpm for 20 minutes at 4° C. Transfer 80 μL supernatant into 240 μL HPLC water, and mix by plate shaker for 10 min. Each bioanalysis plate was sealed and shaken for 10 minutes prior to LC-MS/MS analysis.
(§17) The equation of first order kinetics was used to calculate T½ and CLint(mic) (μL/min/mg). Equation of first order kinetics: […]
(§18) The biological stability of the compounds of the disclosure can be measured by determining its ½ life in the presence microsomes. Presented in Table 5, is the ½ life of selected compounds of the disclosure in the presence of human liver microsomes (HLM) or mouse liver microsomes (MLM) as described above. In Table 5, ½ life is presented as “++++” (value is greater than 60 minutes), “+++” (value is greater than 30 minutes and less than or equal to 60 minutes), “++” (value is greater than 15 minutes and less than or equal to 30 minutes) and “+” (value is 15 minutes or less).

PI3Ka = PI3Ka (Homo sapiens (Human), UniProt P42336); experiment: Z'-LYTE / Adapta kinase assay, PI3Ka; type: biochemical; conditions: for inhibition at 0.1 µM: read-out: PI3Ka % Inh. @ 100 nM
PI3Ka, sequence (P42336 whole entry): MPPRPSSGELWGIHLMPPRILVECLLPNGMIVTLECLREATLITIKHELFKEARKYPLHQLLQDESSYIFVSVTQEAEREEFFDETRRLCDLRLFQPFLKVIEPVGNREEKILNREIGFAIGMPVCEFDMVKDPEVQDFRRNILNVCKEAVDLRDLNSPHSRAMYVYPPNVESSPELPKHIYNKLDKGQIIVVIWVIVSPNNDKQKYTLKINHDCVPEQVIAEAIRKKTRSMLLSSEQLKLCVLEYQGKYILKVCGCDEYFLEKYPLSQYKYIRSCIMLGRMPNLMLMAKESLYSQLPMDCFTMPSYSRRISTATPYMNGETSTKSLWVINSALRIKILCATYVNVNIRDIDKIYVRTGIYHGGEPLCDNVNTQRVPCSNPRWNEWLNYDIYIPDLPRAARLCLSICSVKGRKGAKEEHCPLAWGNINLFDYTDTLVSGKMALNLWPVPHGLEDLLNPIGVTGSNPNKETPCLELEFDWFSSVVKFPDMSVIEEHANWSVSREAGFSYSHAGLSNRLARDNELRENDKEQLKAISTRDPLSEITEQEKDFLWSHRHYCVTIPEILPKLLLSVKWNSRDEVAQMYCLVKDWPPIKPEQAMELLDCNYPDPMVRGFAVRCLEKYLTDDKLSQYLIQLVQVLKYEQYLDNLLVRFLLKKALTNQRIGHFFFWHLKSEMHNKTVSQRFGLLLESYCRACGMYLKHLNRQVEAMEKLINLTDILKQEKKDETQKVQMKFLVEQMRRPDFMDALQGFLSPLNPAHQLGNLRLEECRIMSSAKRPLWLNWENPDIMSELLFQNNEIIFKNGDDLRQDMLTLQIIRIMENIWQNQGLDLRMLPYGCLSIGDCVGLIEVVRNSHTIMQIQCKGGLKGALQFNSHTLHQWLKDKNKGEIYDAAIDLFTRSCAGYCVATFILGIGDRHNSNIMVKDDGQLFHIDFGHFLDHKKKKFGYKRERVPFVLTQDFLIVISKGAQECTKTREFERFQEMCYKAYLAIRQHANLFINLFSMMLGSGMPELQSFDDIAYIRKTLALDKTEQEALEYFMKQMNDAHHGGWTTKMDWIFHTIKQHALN
PI3Ka, sequence (P27986 whole entry partner): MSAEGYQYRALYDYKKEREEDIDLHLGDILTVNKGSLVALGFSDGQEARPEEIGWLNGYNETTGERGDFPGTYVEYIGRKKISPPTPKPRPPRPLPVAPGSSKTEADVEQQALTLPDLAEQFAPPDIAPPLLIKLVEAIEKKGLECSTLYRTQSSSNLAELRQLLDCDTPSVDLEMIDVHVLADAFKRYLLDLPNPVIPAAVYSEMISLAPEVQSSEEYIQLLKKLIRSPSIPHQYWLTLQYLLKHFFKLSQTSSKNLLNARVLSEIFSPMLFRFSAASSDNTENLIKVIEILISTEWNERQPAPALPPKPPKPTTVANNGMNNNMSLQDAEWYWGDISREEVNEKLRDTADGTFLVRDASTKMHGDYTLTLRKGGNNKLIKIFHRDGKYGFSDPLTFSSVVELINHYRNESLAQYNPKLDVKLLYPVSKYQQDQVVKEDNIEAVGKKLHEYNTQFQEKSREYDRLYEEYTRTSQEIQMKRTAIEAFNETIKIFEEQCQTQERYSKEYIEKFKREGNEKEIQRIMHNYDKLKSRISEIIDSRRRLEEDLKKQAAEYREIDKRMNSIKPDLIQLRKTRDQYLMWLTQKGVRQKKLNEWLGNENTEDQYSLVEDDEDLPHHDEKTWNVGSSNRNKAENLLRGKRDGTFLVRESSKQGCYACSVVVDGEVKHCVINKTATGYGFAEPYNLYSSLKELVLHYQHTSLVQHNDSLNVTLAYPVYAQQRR
Source text: as §1, §2, §3, §4, §5, §6, §7, §8, §9, §10, §11

EGFR = EGFR (Homo sapiens (Human), UniProt P00533); experiment: Z'-LYTE / Adapta kinase assay, EGFR; type: biochemical; conditions: for inhibition at 0.1 µM: read-out: EGFR % Inh. @ 100 nM
EGFR, sequence (P00533 25-1210): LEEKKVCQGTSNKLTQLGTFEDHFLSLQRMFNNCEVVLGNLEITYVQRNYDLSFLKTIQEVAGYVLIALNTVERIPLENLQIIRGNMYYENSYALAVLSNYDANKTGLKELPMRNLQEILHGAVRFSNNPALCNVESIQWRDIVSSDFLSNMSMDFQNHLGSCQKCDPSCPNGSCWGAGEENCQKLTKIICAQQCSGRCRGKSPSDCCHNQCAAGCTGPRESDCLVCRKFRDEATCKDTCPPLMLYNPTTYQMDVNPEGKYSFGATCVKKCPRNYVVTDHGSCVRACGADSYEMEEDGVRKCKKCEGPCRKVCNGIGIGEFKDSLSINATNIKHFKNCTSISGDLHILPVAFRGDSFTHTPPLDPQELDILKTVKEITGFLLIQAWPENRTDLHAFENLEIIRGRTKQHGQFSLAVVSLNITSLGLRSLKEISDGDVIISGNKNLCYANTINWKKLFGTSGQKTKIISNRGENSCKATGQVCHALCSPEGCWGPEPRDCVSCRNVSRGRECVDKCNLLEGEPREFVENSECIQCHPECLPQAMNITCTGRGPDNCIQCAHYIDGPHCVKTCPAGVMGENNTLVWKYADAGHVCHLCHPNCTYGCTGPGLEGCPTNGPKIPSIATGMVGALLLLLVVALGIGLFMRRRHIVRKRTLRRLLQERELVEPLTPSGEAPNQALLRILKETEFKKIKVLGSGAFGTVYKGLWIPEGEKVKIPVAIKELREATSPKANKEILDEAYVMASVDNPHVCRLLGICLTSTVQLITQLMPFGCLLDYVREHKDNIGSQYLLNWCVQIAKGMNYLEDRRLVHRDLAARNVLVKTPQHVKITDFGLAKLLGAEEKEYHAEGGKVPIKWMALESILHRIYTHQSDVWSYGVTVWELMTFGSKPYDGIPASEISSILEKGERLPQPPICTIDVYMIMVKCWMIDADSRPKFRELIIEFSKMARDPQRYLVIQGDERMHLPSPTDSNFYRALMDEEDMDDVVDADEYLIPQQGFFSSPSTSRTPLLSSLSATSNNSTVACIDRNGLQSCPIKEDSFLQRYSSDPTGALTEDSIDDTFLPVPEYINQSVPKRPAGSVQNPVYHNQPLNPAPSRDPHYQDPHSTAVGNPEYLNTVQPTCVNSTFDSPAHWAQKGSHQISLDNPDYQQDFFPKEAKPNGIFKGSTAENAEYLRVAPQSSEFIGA
Source text: as §1, §2, §3, §4, §5, §6, §7, §8, §9, §10, §11

[2] = Metabolic stability in human liver microsomes; type: in vitro ADME
Method: as §12, §13, §14, §15, §16, §17, §18

| SMILES | inhibition at 0.1 µM (DNA-PK) [%] | ½ life minutes (MLM) [1] | inhibition at 0.1 µM (PI3Ka) [%] | inhibition at 0.1 µM (EGFR) [%] | ½ life minutes (HLM) [2] | IC50 (EGFR) [nM] | IC50 (DNA-PK) [nM] | PI3Ka IC50 (nM) (PI3Ka) | IC50 (PI3Ka) [nM] |
| --- | --- | --- | --- | --- | --- | --- | --- | --- | --- |
| CC(Nc1c(C#N)cnc2ccc(-c3cnc(Cl)c(NS(C)(=O)=O)c3)cc12)c1ccccc1 (stereo not drawn) [Compound 48, N-[2-chloro-5-[3-cyano-4-(1-phenylethylamino)-6-quinolyl]-3-pyridyl]methanesulfonamide] | > 90 | ++++ (value is greater than 60 minutes) | > 90 | 80 to 90 | ++++ (value is greater than 60 minutes) |  |  |  |  |
| C[C@@H](Nc1c(C#N)cnc2ccc(-c3cnc(Cl)c(NS(C)(=O)=O)c3)cc12)c1ccccc1 [Compound 48R, N-(2-chloro-5-(3-cyano-4-((1R-phenylethyl)amino)quinolin-6-yl)pyridin-3-yl)methanesulfonamide] | > 90 | ++++ (value is greater than 60 minutes) | > 90 | > 90 | +++ (value is greater than 30 minutes and less than or equal to 60 minutes) | 2 to 20 |  |  |  |
| C[C@H](Nc1c(C#N)cnc2ccc(-c3cnc(Cl)c(NS(C)(=O)=O)c3)cc12)c1ccccc1 [Compound 48S, N-(2-chloro-5-(3-cyano-4-((1S-phenylethyl)amino)quinolin-6-yl)pyridin-3-yl)methanesulfonamide] | > 90 | ++++ (value is greater than 60 minutes) | > 90 | < 10 | ++++ (value is greater than 60 minutes) | > 200 | < 2 | ++++ (value is 2 nM or less) |  |
| C[C@@H](Nc1c(C#N)cnc2ccc(-c3cnc(Cl)c(NS(C)(=O)=O)c3)cc12)c1ccc(F)cc1 [Compound 97R, N-[2-chloro-5-[3-cyano-4-[[(1R)-1-(4-fluorophenyl)ethyl]amino]-6-quinolyl]-3-pyridyl]methanesulfonamide] | > 90 | ++++ (value is greater than 60 minutes) |  | 10 to 80 | ++++ (value is greater than 60 minutes) |  |  |  |  |
| C[C@H](Nc1c(C#N)cnc2ccc(-c3cnc(Cl)c(NS(C)(=O)=O)c3)cc12)c1ccc(F)cc1 [Compound 97S, N-(2-chloro-5-(3-cyano-4-((1S-(4-fluorophenyl)ethyl)amino)quinolin-6-yl)pyridin-3-yl)methanesulfonamide] | > 90 | ++++ (value is greater than 60 minutes) | > 90 | < 10 | ++++ (value is greater than 60 minutes) | > 200 | < 2 |  | < 2 |
| CS(=O)(=O)Nc1cc(-c2ccc3ncc(C#N)c(NC4(c5ccccc5)CC4)c3c2)cnc1Cl [Compound 106, N-[2-chloro-5-[3-cyano-4-[(1-phenylcyclopropyl)amino]-6-quinolyl]-3-pyridyl]methanesulfonamide] | > 90 | +++ (value is greater than 30 minutes and less than or equal to 60 minutes) |  | 10 to 80 | ++++ (value is greater than 60 minutes) |  |  |  |  |
| C[C@H](Nc1ncnc2ccc(-c3cnc(Cl)c(NS(C)(=O)=O)c3)cc12)c1ccc(F)cc1 [Compound 111S, N-[2-chloro-5-[4-[[(1S)-1-(4-fluorophenyl)ethyl]amino]quinazolin-6-yl]-3-pyridyl]methanesulfonamide] | > 90 | ++++ (value is greater than 60 minutes) | > 90 | < 10 | ++++ (value is greater than 60 minutes) | > 200 | < 2 | ++++ (value is 2 nM or less) |  |
| CC(Nc1ncnc2ccc(-c3cnc(N)nc3)cc12)c1ccc(F)cc1 (stereo not drawn) [Compound 121, 6-(2-aminopyrimidin-5-yl)-N-(1-(4-fluorophenyl)ethyl)quinazolin-4-amine] | 10 to 80 | ++++ (value is greater than 60 minutes) | 10 to 80 | 80 to 90 | ++++ (value is greater than 60 minutes) | 2 to 20 | > 200 | + (value is greater than 200 nM) |  |
